Results published in the NIST ThermoML archive (doi:10.1016/j.jct.2016.10.034).
Numbers after ± are expanded uncertainties.

How the values were obtained:
[1] = for viscosity / mass density: 100 kPa, Liquid; for viscosity: Falling or rolling sphere viscometry; for mass density: Vibrating tube method; for Glass transition temperature: DSC
[2] = xn = mol fraction of the nth substance listed; settings: 100 kPa, Liquid, x2 = 0; for viscosity: Falling or rolling sphere viscometry; for mass density: Vibrating tube method

CC(=O)[O-].CC[N+]1(C)CCCC1 [1-ethyl-1-methylpyrrolidinium acetate]
viscosity ([1]; 298.15 K): 240 ± 27 mPa·s | mass density ([1]; 298.15 K): 1064.5 ± 2.2 kg/m3 | viscosity ([1]; 303.15 K): 184 ± 20 mPa·s | mass density ([1]; 303.15 K): 1061.8 ± 2.2 kg/m3 | viscosity ([1]; 308.15 K): 145 ± 15 mPa·s | mass density ([1]; 308.15 K): 1058.7 ± 2.2 kg/m3 | viscosity ([1]; 313.15 K): 117 ± 12 mPa·s | mass density ([1]; 313.15 K): 1055.9 ± 2.2 kg/m3 | viscosity ([1]; 318.15 K): 93.4 ± 9.7 mPa·s | mass density ([1]; 318.15 K): 1053.1 ± 2.2 kg/m3 | viscosity ([1]; 323.15 K): 74 ± 7.6 mPa·s | mass density ([1]; 323.15 K): 1050.3 ± 2.2 kg/m3 | viscosity ([1]; 328.15 K): 60 ± 6.1 mPa·s | mass density ([1]; 328.15 K): 1047.4 ± 2.2 kg/m3 | viscosity ([1]; 333.15 K): 49.2 ± 5 mPa·s | mass density ([1]; 333.15 K): 1044.4 ± 2.1 kg/m3 | viscosity ([1]; 338.15 K): 39.4 ± 4 mPa·s | mass density ([1]; 338.15 K): 1041.8 ± 2.1 kg/m3 | viscosity ([1]; 343.15 K): 32.4 ± 3.3 mPa·s | mass density ([1]; 343.15 K): 1038.8 ± 2.1 kg/m3 | viscosity ([1]; 348.15 K): 26 ± 2.6 mPa·s | mass density ([1]; 348.15 K): 1035.9 ± 2.1 kg/m3 | Glass transition temperature [1]: -88 ± 20 °C

CC[N+]1(C)CCCC1.O=C([O-])CO [1-ethyl-1-methylpyrrolidinium glycolate]
viscosity ([1]; 298.15 K): 345 ± 41 mPa·s | mass density ([1]; 298.15 K): 1134 ± 2.5 kg/m3 | viscosity ([1]; 303.15 K): 254 ± 29 mPa·s | mass density ([1]; 303.15 K): 1130.7 ± 2.5 kg/m3 | viscosity ([1]; 308.15 K): 192 ± 21 mPa·s | mass density ([1]; 308.15 K): 1127.3 ± 2.4 kg/m3 | viscosity ([1]; 313.15 K): 151 ± 16 mPa·s | mass density ([1]; 313.15 K): 1124 ± 2.4 kg/m3 | viscosity ([1]; 318.15 K): 116 ± 12 mPa·s | mass density ([1]; 318.15 K): 1120.8 ± 2.4 kg/m3 | viscosity ([1]; 323.15 K): 92.2 ± 9.5 mPa·s | mass density ([1]; 323.15 K): 1117.6 ± 2.4 kg/m3 | viscosity ([1]; 328.15 K): 76.9 ± 7.9 mPa·s | mass density ([1]; 328.15 K): 1114.4 ± 2.4 kg/m3 | viscosity ([1]; 333.15 K): 60.6 ± 6.2 mPa·s | mass density ([1]; 333.15 K): 1111.2 ± 2.4 kg/m3 | viscosity ([1]; 338.15 K): 49.6 ± 5 mPa·s | mass density ([1]; 338.15 K): 1108.1 ± 2.4 kg/m3 | viscosity ([1]; 343.15 K): 41.2 ± 4.2 mPa·s | mass density ([1]; 343.15 K): 1105 ± 2.4 kg/m3 | viscosity ([1]; 348.15 K): 34.2 ± 3.5 mPa·s | mass density ([1]; 348.15 K): 1101.9 ± 2.3 kg/m3 | Glass transition temperature [1]: -80 ± 20 °C

CC[N+]1(C)CCOCC1.O=C([O-])CO [N-ethyl-N-methylmorpholinium glycolate]
mass density ([1]; 298.15 K): 1232.6 ± 2.9 kg/m3 | mass density ([1]; 303.15 K): 1229.5 ± 2.9 kg/m3 | mass density ([1]; 308.15 K): 1226.3 ± 2.9 kg/m3 | mass density ([1]; 313.15 K): 1223 ± 2.9 kg/m3 | viscosity ([1]; 318.15 K): 2500 ± 390 mPa·s | mass density ([1]; 318.15 K): 1219.8 ± 2.9 kg/m3 | viscosity ([1]; 323.15 K): 1799 ± 270 mPa·s | mass density ([1]; 323.15 K): 1216.5 ± 2.9 kg/m3 | viscosity ([1]; 328.15 K): 1155 ± 160 mPa·s | mass density ([1]; 328.15 K): 1213.3 ± 2.8 kg/m3 | viscosity ([1]; 333.15 K): 854 ± 110 mPa·s | mass density ([1]; 333.15 K): 1210.1 ± 2.8 kg/m3 | viscosity ([1]; 338.15 K): 666 ± 86 mPa·s | mass density ([1]; 338.15 K): 1207.2 ± 2.8 kg/m3 | viscosity ([1]; 343.15 K): 488 ± 60 mPa·s | mass density ([1]; 343.15 K): 1204.1 ± 2.8 kg/m3 | viscosity ([1]; 348.15 K): 363 ± 43 mPa·s | mass density ([1]; 348.15 K): 1201.1 ± 2.8 kg/m3 | Glass transition temperature [1]: -59 ± 20 °C

O [water] + CC(=O)[O-].CC[N+]1(C)CCCC1
viscosity ([2]; 298.15 K): 0.89 ± 0.089 mPa·s | viscosity ([2]; 303.15 K): 0.797 ± 0.08 mPa·s | viscosity ([2]; 308.15 K): 0.719 ± 0.072 mPa·s | viscosity ([2]; 313.15 K): 0.653 ± 0.066 mPa·s | viscosity ([2]; 318.15 K): 0.596 ± 0.06 mPa·s | viscosity ([2]; 323.15 K): 0.547 ± 0.055 mPa·s | mass density ([2]; 323.15 K): 987.9 ± 1 kg/m3 | viscosity ([2]; 328.15 K): 0.504 ± 0.051 mPa·s | mass density ([2]; 328.15 K): 985.7 ± 1 kg/m3 | viscosity ([2]; 333.15 K): 0.466 ± 0.047 mPa·s | mass density ([2]; 333.15 K): 983.2 ± 1 kg/m3 | viscosity ([2]; 338.15 K): 0.433 ± 0.043 mPa·s | mass density ([2]; 338.15 K): 980.3 ± 1 kg/m3 | viscosity ([2]; 343.15 K): 0.404 ± 0.041 mPa·s | mass density ([2]; 343.15 K): 978.1 ± 1 kg/m3 | viscosity ([2]; 348.15 K): 0.378 ± 0.038 mPa·s | mass density ([2]; 348.15 K): 974.8 ± 1 kg/m3

O [water] + CC[N+]1(C)CCCC1.O=C([O-])CO
viscosity ([2]; 298.15 K): 0.89 ± 0.089 mPa·s | viscosity ([2]; 303.15 K): 0.797 ± 0.08 mPa·s | viscosity ([2]; 308.15 K): 0.719 ± 0.072 mPa·s | viscosity ([2]; 313.15 K): 0.653 ± 0.066 mPa·s | viscosity ([2]; 318.15 K): 0.596 ± 0.06 mPa·s | viscosity ([2]; 323.15 K): 0.547 ± 0.055 mPa·s | mass density ([2]; 323.15 K): 987.9 ± 1 kg/m3 | viscosity ([2]; 328.15 K): 0.504 ± 0.051 mPa·s | mass density ([2]; 328.15 K): 985.7 ± 1 kg/m3 | viscosity ([2]; 333.15 K): 0.466 ± 0.047 mPa·s | mass density ([2]; 333.15 K): 983.2 ± 1 kg/m3 | viscosity ([2]; 338.15 K): 0.433 ± 0.043 mPa·s | mass density ([2]; 338.15 K): 980.3 ± 1 kg/m3 | viscosity ([2]; 343.15 K): 0.404 ± 0.041 mPa·s | mass density ([2]; 343.15 K): 978.1 ± 1 kg/m3 | viscosity ([2]; 348.15 K): 0.378 ± 0.038 mPa·s | mass density ([2]; 348.15 K): 974.8 ± 1 kg/m3

O [water] + CC[N+]1(C)CCOCC1.O=C([O-])CO
viscosity ([2]; 298.15 K): 0.89 ± 0.089 mPa·s | viscosity ([2]; 303.15 K): 0.797 ± 0.08 mPa·s | viscosity ([2]; 308.15 K): 0.719 ± 0.072 mPa·s | viscosity ([2]; 313.15 K): 0.653 ± 0.066 mPa·s | viscosity ([2]; 318.15 K): 0.596 ± 0.06 mPa·s | viscosity ([2]; 323.15 K): 0.547 ± 0.055 mPa·s | mass density ([2]; 323.15 K): 987.9 ± 1 kg/m3 | viscosity ([2]; 328.15 K): 0.504 ± 0.051 mPa·s | mass density ([2]; 328.15 K): 985.7 ± 1 kg/m3 | viscosity ([2]; 333.15 K): 0.466 ± 0.047 mPa·s | mass density ([2]; 333.15 K): 983.2 ± 1 kg/m3 | viscosity ([2]; 338.15 K): 0.433 ± 0.043 mPa·s | mass density ([2]; 338.15 K): 980.3 ± 1 kg/m3 | viscosity ([2]; 343.15 K): 0.404 ± 0.041 mPa·s | mass density ([2]; 343.15 K): 978.1 ± 1 kg/m3 | viscosity ([2]; 348.15 K): 0.378 ± 0.038 mPa·s | mass density ([2]; 348.15 K): 974.8 ± 1 kg/m3
